Results from PubChem BioAssay (NCI).
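Cells were grown in 96-well plates and exposed to each compound for 48 hours at five concentrations; endpoints were interpolated linearly between bracketing concentrations, or set to the highest concentration if not reached. Here, GI50 denotes the concentration required for 50% inhibition of growth. TGI is the concentration that stops growth completely.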

Key:
Assay in all cases: NCI tumour cell line growth inhibition, 48 h
RXF 393 renal = system: RXF 393 renal
A549 NSCLC = system: A549 NSCLC
LOX IMVI melanoma = system: LOX IMVI melanoma
NCI-H522 lung = system: NCI-H522 lung
NCI-H226 lung = system: NCI-H226 lung
SK-OV-3 ovarian = system: SK-OV-3 ovarian
COLO 205 colon = system: COLO 205 colon
HOP-92 NSCLC = system: HOP-92 NSCLC
KM12 colon = system: KM12 colon
UO-31 renal = system: UO-31 renal

Row | Structure (SMILES) | TGI (RXF 393 renal) [µM] | TGI (A549 NSCLC) [µM] | TGI (LOX IMVI melanoma) [µM] | TGI (NCI-H522 lung) [µM] | TGI (NCI-H226 lung) [µM] | TGI (SK-OV-3 ovarian) [µM] | TGI (COLO 205 colon) [µM] | TGI (HOP-92 NSCLC) [µM] | TGI (KM12 colon) [µM] | TGI (UO-31 renal) [µM] | GI50 (RXF 393 renal) [µM] | GI50 (A549 NSCLC) [µM] | GI50 (LOX IMVI melanoma) [µM] | GI50 (NCI-H522 lung) [µM] | GI50 (NCI-H226 lung) [µM] | GI50 (SK-OV-3 ovarian) [µM] | GI50 (COLO 205 colon) [µM] | GI50 (HOP-92 NSCLC) [µM] | GI50 (KM12 colon) [µM] | GI50 (UO-31 renal) [µM]
1 | O=P1(Cc2ccccc2)c2ccccc2-c2ccccc21 | 28.9 | > 94.6 | 23.1 | 14.1 | 31.2 | > 100 | 17 | 6.99 | 10.3 | 69.2 | – | – | – | – | – | – | – | – | – | –
2 | C[n+]1ccccc1/C1=c2\cc/c([nH]2)=C(\c2cccc[n+]2C)C2=N/C(=C(/c3cccc[n+]3C)C3C=CC(N3)/C(c3cccc[n+]3C)=C3/C=CC1=N3)C=C2 | > 100 | > 100 | > 100 | > 100 | > 100 | > 100 | > 100 | > 100 | > 100 | > 100 | – | – | – | – | – | – | – | – | – | –
3 | O=C(NC1(C(=O)O)CCCC1)c1ccccc1 | > 100 | > 100 | > 100 | > 100 | > 100 | > 100 | > 100 | > 100 | > 100 | > 100 | – | – | – | – | – | – | – | – | – | –
4 | CN(C)c1ccc(/C=C(\NC(=O)c2ccccc2)C(=O)NC(Cc2c[nH]c3ccccc23)C(=O)O)cc1 (stereo not given) | > 100 | > 100 | > 100 | > 100 | > 100 | > 100 | > 100 | > 100 | > 100 | > 100 | – | – | – | – | – | – | – | – | – | –
5 | COc1ccccc1C1C(C#N)=C(N)Oc2cc(O)ccc21 (stereo not given) | 75.6 | > 100 | > 100 | 17.1 | 35 | 44.6 | 36.6 | 33.7 | > 100 | > 100 | 23.2 | 26.8 | 30.8 | 3.15 | 13.7 | 16.8 | 15.8 | 4.77 | 9.57 | 29.3
6 | Cc1ccc(C(=O)N/N=C2/C(=O)c3c4ccccc4cc4cccc2c34)cc1 | > 69 | > 100 | > 100 | 59.8 | > 100 | > 75.9 | > 100 | > 94 | > 84.3 | > 100 | – | – | – | – | – | – | – | – | – | –
7 | COc1ccc2oc(C(=O)N3CC(CCl)c4ccc(N)cc43)cc2c1 (stereo not given) | 0.532 | > 100 | 32 | 0.0828 | 14.1 | 8.78 | 1.28 | 18.7 | 1.45 | 0.617 | – | – | – | – | – | – | – | – | – | –
8 | O=c1[nH]c(=O)n([C@@H]2O[C@H](CO)[C@@H](O)[C@@H]2F)cc1I | > 100 | > 100 | > 100 | > 100 | > 100 | > 100 | > 100 | > 100 | > 100 | > 100 | – | – | – | – | – | – | – | – | – | –
9 | O=C(Nc1ccc2cc3ccccc3cc2c1)c1cc2c(cc1Cl)Sc1nccn1S2(=O)=O | > 100 | > 100 | > 100 | > 100 | > 100 | > 100 | > 100 | > 100 | > 100 | > 100 | – | – | – | – | – | – | – | – | – | –
10 | COc1cc(S(=O)(=O)Nc2ccc(-c3csc(N4C(=O)C(Cl)C4c4cccs4)n3)cc2)ccc1Cl (stereo not given) | 86.4 | > 100 | 5.15 | 30.6 | > 100 | > 100 | > 100 | 45.5 | > 100 | > 100 | – | – | – | – | – | – | – | – | – | –
11 | CCOC(=O)/C=C(/C(=O)OCC)n1ccc(=O)n(Cc2cnnn2CCCCOC(C)=O)c1=O | > 100 | > 100 | > 100 | 42.6 | > 100 | > 100 | 46 | 45.7 | > 100 | > 100 | – | – | – | – | – | – | – | – | – | –
12 | N#Cc1c(-c2ccc([N+](=O)[O-])cc2)cc(-c2ccc(Nc3ccnc4cc(Cl)ccc34)cc2)nc1N | 34.9 | 8.8 | 2.9 | 11.2 | > 95.2 | 52.5 | > 66 | 48.7 | 14.7 | 42.8 | – | – | – | – | – | – | – | – | – | –
13 | COc1cc2c(c(OC)c1OC)-c1ccc(SC)c(=O)cc1C(CC(=O)Oc1cccc(F)c1)C2 (stereo not given) | > 100 | > 100 | 10.8 | 0.241 | 0.794 | 16.1 | 0.555 | > 81.3 | 1.14 | > 100 | – | – | – | – | – | – | – | – | – | –
14 | COc1cc(OC)c(C2(c3c(OC(C)C)c(=O)c3=O)SCCCS2)cc1OC | > 100 | > 100 | > 100 | > 100 | > 100 | > 100 | > 100 | > 100 | > 100 | > 100 | – | – | – | – | – | – | – | – | – | –
15 | O=C(C1OC1c1cccc([N+](=O)[O-])c1)C12CC3CC(CC(C3)C1)C2 (stereo not given) | 16.8 | 26.6 | 3.84 | 9.76 | 25.9 | 31.6 | 23.4 | 25.3 | 13.9 | 21 | – | – | – | – | – | – | – | – | – | –
16 | CCOC(=O)C1(C(=O)OCC)C=C(c2ccccc2)N(C2OC(COC(C)=O)C(OC(C)=O)C(OC(C)=O)C2OC(C)=O)C1=S (stereo not given) | > 100 | > 100 | > 100 | > 100 | > 100 | > 100 | > 100 | > 100 | > 100 | > 100 | – | – | – | – | – | – | – | – | – | –
17 | O=C1NC(=Nc2ccccc2Cl)N/C1=C\c1ccc(Cl)cc1Cl | 40.1 | > 100 | > 100 | > 100 | 57.6 | > 100 | > 100 | > 100 | > 100 | > 100 | – | – | – | – | – | – | – | – | – | –
18 | O=C1NC(=Nc2ccccc2)C(=Nc2ccccc2)N1c1ccccc1 | 29.2 | 31 | 30.1 | 11.5 | 32 | 34.4 | 28 | 30 | 32.8 | 30.1 | – | – | – | – | – | – | – | – | – | –
19 | CCNC(=S)NNC(=O)CSc1nc2ccc(I)cc2c(=O)n1Cc1ccccc1 | > 81 | > 100 | > 100 | > 100 | > 95.5 | > 100 | > 100 | 97.7 | > 100 | 0.136 | – | – | – | – | – | – | – | – | – | –
20 | C/C(=N\NC(N)=S)c1sc(-n2nc(-c3ccccc3)cc2-c2ccccc2)nc1C | > 100 | > 100 | > 100 | > 100 | > 100 | > 100 | > 100 | > 100 | > 100 | > 100 | – | – | – | – | – | – | – | – | – | –
21 | COc1ccc(/C=C/C(=O)Oc2ccccc2OC)cc1 | 99.8 | > 100 | > 70.7 | > 72 | > 100 | > 100 | 21.2 | 97.7 | 31.3 | > 100 | – | – | – | – | – | – | – | – | – | –
22 | NS(=O)(=O)c1nnc(NS(=O)(=O)c2ccc([N+](=O)[O-])cc2)s1 | > 100 | > 100 | > 100 | 77.5 | > 100 | > 100 | > 100 | > 100 | > 100 | > 100 | – | – | – | – | – | – | – | – | – | –
23 | COc1ccc2c(c1OC)C(=O)O[C@@H]2[C@H]1c2c(cc3c(c2OC)OCO3)CCN1C | > 100 | > 100 | > 100 | > 100 | > 100 | > 100 | > 100 | > 100 | > 100 | > 100 | – | – | – | – | – | – | – | – | – | –
24 | C[n+]1cn(-c2nc3ccccc3nc2[N-]S(=O)(=O)c2ccccc2)c2ccccc21 | > 100 | > 100 | > 100 | 5.27 | > 100 | > 100 | > 100 | > 100 | > 100 | > 100 | – | – | – | – | – | – | – | – | – | –
25 | [N-]=[N+]=Nc1ccc2c(c1)Sc1ccccc1N2CCCCN1CCN(C(=O)CCNC(=O)Cc2ccc(C(=O)c3ccccc3)cc2)CC1 | > 100 | > 100 | 5.17 | 7.51 | > 100 | > 100 | 8.92 | > 29.2 | 23 | > 100 | – | – | – | – | – | – | – | – | – | –
26 | O=c1c2c3c(sc2nc2n1N=CN(c1ccc(F)cc1)C2)CCCC3 | > 100 | > 100 | > 100 | > 100 | > 100 | > 100 | > 100 | > 100 | > 100 | > 100 | – | – | – | – | – | – | – | – | – | –
27 | CCC(=O)Nc1ccc(NCC(=O)Nc2ccc(OC)cc2)cc1 | 35.2 | > 100 | 39.3 | 29.5 | 37.7 | 95.3 | > 100 | 66.3 | > 100 | > 100 | – | – | – | – | – | – | – | – | – | –
28 | C=CC[C@]1(C2=NC(C)(C)CO2)c2ccccc2-c2ccccc2[C@H]1C(C)=O | 15.8 | 36.8 | 25.8 | 9.45 | 30 | > 54.9 | 15 | 39.8 | 38.6 | 28 | – | – | – | – | – | – | – | – | – | –
